Assay results: article PMC5021990 (Biochemical and biophysical research communications, 2016)

What was measured:
FnLpxA = FnLpxA (Francisella tularensis, UniProt A0Q7Y0); conditions: 20 μM R,S-3-hydroxypalmitoyl-ACP, 100 μM [α-32P]UDP-GlcNAc, 40 mM HEPES pH 7.4, 100 mM NaCl, 30 °C; labelled compound
[1] = target: Francisella novicida LpxA (UDP-N-acetylglucosamine acyltransferase), C-terminally His6-tagged (Francisella novicida); assay: SEC

Molecule | TLC radioassay of acyl transfer, PhosphorImager (FnLpxA) | stoichiometry N [1]
CC(=O)N[C@H]1[C@@H](OP(=O)(O)OP(=O)(O)OC[C@H]2O[C@@H](n3ccc(=O)[nH]c3=O)[C@H](O)[C@@H]2O)O[C@H](CO)[C@@H](O)[C@@H]1O [UDP-GlcNAc] | purified FnLpxA transfers a 3-hydroxypalmitoyl group from 3-hydroxypalmitoyl-ACP to the 3-OH of UDP-GlcNAc | 
Francisella novicida LpxA (UDP-N-acetylglucosamine acyltransferase), C-terminally His6-tagged (enzyme) |  | 3
